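These data come from cells grown in 96-well plates and exposed to compound for 48 hours at five concentrations. TGI marks complete inhibition of growth.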
How the values were obtained:
Experiment in all cases: NCI-60 cell line screen, 48 h
EKVX NSCLC = system: EKVX NSCLC
NCI-H460 lung = system: NCI-H460 lung
786-0 renal = system: 786-0 renal
XF 498 CNS = system: XF 498 CNS
DMS 273 small cell lung = system: DMS 273 small cell lung
U251 CNS = system: U251 CNS
OVCAR-4 ovarian = system: OVCAR-4 ovarian
MOLT-4 leukemia = system: MOLT-4 leukemia
A549 NSCLC = system: A549 NSCLC
M19-MEL melanoma = system: M19-MEL melanoma
SF-539 CNS = system: SF-539 CNS
SNB-75 CNS = system: SNB-75 CNS
NCI-H522 lung = system: NCI-H522 lung
HOP-62 NSCLC = system: HOP-62 NSCLC
SF-295 CNS = system: SF-295 CNS
COLO 205 colon = system: COLO 205 colon
HCT-116 colon = system: HCT-116 colon
CAKI-1 renal = system: CAKI-1 renal
CCRF-CEM leukemia = system: CCRF-CEM leukemia
OVCAR-8 ovarian = system: OVCAR-8 ovarian
SF-268 CNS = system: SF-268 CNS
SK-MEL-5 melanoma = system: SK-MEL-5 melanoma
SNB-78 CNS = system: SNB-78 CNS
RPMI-8226 leukemia = system: RPMI-8226 leukemia
DLD-1 colon = system: DLD-1 colon
SN12C renal = system: SN12C renal
SW-620 colon = system: SW-620 colon
DMS 114 small cell lung = system: DMS 114 small cell lung
ACHN renal = system: ACHN renal
UACC-257 melanoma = system: UACC-257 melanoma
HT29 colon = system: HT29 colon
NCI-H226 lung = system: NCI-H226 lung
KM12 colon = system: KM12 colon
TK-10 renal = system: TK-10 renal
SR leukemia = system: SR leukemia
SK-MEL-2 melanoma = system: SK-MEL-2 melanoma
K-562 leukemia = system: K-562 leukemia
HCT-15 colon = system: HCT-15 colon
HL-60(TB) leukemia = system: HL-60(TB) leukemia
SNB-19 CNS = system: SNB-19 CNS
LOX IMVI melanoma = system: LOX IMVI melanoma
HCC-2998 colon = system: HCC-2998 colon
NCI-H23 lung = system: NCI-H23 lung
UO-31 renal = system: UO-31 renal
MALME-3M melanoma = system: MALME-3M melanoma
OVCAR-5 ovarian = system: OVCAR-5 ovarian
OVCAR-3 ovarian = system: OVCAR-3 ovarian
SK-MEL-28 melanoma = system: SK-MEL-28 melanoma
M14 melanoma = system: M14 melanoma
SK-OV-3 ovarian = system: SK-OV-3 ovarian
UACC-62 melanoma = system: UACC-62 melanoma
LXFL 529 NSCLC = system: LXFL 529 NSCLC
HOP-92 NSCLC = system: HOP-92 NSCLC
KM20L2 colon = system: KM20L2 colon
IGROV1 ovarian = system: IGROV1 ovarian
RXF 393 renal = system: RXF 393 renal

COc1ccccc1/C=C1\C(=O)N(C(=O)c2ccc(NC(C)=O)cc2)N=C1C
TGI (EKVX NSCLC): > 100 µM | TGI (NCI-H460 lung): > 100 µM | TGI (786-0 renal): > 100 µM | TGI (XF 498 CNS): > 100 µM | TGI (DMS 273 small cell lung): > 100 µM | TGI (U251 CNS): > 100 µM | TGI (OVCAR-4 ovarian): > 100 µM | TGI (MOLT-4 leukemia): > 100 µM | TGI (A549 NSCLC): > 100 µM | TGI (M19-MEL melanoma): > 100 µM | TGI (SF-539 CNS): > 100 µM | TGI (SNB-75 CNS): > 100 µM | TGI (NCI-H522 lung): > 100 µM | TGI (HOP-62 NSCLC): > 100 µM | TGI (SF-295 CNS): > 100 µM | TGI (COLO 205 colon): > 100 µM | TGI (HCT-116 colon): > 100 µM | TGI (CAKI-1 renal): > 100 µM | TGI (CCRF-CEM leukemia): > 100 µM | TGI (OVCAR-8 ovarian): > 100 µM | TGI (SF-268 CNS): > 100 µM | TGI (SK-MEL-5 melanoma): > 100 µM | TGI (SNB-78 CNS): > 100 µM | TGI (RPMI-8226 leukemia): > 100 µM | TGI (DLD-1 colon): > 100 µM | TGI (SN12C renal): > 100 µM | TGI (SW-620 colon): > 100 µM | TGI (DMS 114 small cell lung): > 100 µM | TGI (ACHN renal): > 100 µM | TGI (UACC-257 melanoma): > 100 µM | TGI (HT29 colon): > 100 µM | TGI (NCI-H226 lung): > 100 µM | TGI (KM12 colon): > 100 µM | TGI (TK-10 renal): > 100 µM | TGI (SR leukemia): > 100 µM | TGI (SK-MEL-2 melanoma): > 100 µM | TGI (K-562 leukemia): > 100 µM | TGI (HCT-15 colon): > 100 µM | TGI (HL-60(TB) leukemia): > 100 µM | TGI (SNB-19 CNS): > 100 µM | TGI (LOX IMVI melanoma): > 100 µM | TGI (HCC-2998 colon): > 100 µM | TGI (NCI-H23 lung): > 100 µM | TGI (UO-31 renal): > 100 µM | TGI (MALME-3M melanoma): > 100 µM | TGI (OVCAR-5 ovarian): > 100 µM | TGI (OVCAR-3 ovarian): > 100 µM | TGI (SK-MEL-28 melanoma): > 100 µM

c1ccc(C2N=NN(c3ccccc3)C2N2CCCCC2)cc1 (stereo unspecified)
TGI (EKVX NSCLC): > 100 µM | TGI (786-0 renal): > 100 µM | TGI (XF 498 CNS): > 100 µM | TGI (U251 CNS): > 100 µM | TGI (OVCAR-4 ovarian): > 100 µM | TGI (MOLT-4 leukemia): > 100 µM | TGI (A549 NSCLC): > 100 µM | TGI (M19-MEL melanoma): > 100 µM | TGI (M14 melanoma): > 100 µM | TGI (SF-539 CNS): > 100 µM | TGI (SNB-75 CNS): 55 µM | TGI (NCI-H522 lung): > 100 µM | TGI (HOP-62 NSCLC): > 100 µM | TGI (SF-295 CNS): > 100 µM | TGI (SK-OV-3 ovarian): 98.3 µM | TGI (COLO 205 colon): > 100 µM | TGI (UACC-62 melanoma): > 100 µM | TGI (LXFL 529 NSCLC): > 100 µM | TGI (HCT-116 colon): > 100 µM | TGI (CAKI-1 renal): > 100 µM | TGI (CCRF-CEM leukemia): > 100 µM | TGI (SF-268 CNS): > 100 µM | TGI (SK-MEL-5 melanoma): > 100 µM | TGI (SNB-78 CNS): > 100 µM | TGI (RPMI-8226 leukemia): > 100 µM | TGI (DLD-1 colon): > 100 µM | TGI (SN12C renal): > 100 µM | TGI (SW-620 colon): > 100 µM | TGI (DMS 114 small cell lung): > 100 µM | TGI (ACHN renal): > 100 µM | TGI (UACC-257 melanoma): > 100 µM | TGI (HT29 colon): > 100 µM | TGI (NCI-H226 lung): > 100 µM | TGI (KM12 colon): > 100 µM | TGI (TK-10 renal): > 100 µM | TGI (SR leukemia): > 100 µM | TGI (SK-MEL-2 melanoma): > 100 µM | TGI (K-562 leukemia): > 100 µM | TGI (HCT-15 colon): > 100 µM | TGI (HL-60(TB) leukemia): > 100 µM | TGI (HOP-92 NSCLC): 62.4 µM | TGI (SNB-19 CNS): > 100 µM | TGI (LOX IMVI melanoma): > 100 µM | TGI (HCC-2998 colon): > 100 µM | TGI (NCI-H23 lung): > 100 µM | TGI (UO-31 renal): > 100 µM | TGI (MALME-3M melanoma): > 100 µM | TGI (OVCAR-5 ovarian): > 100 µM | TGI (KM20L2 colon): > 100 µM | TGI (IGROV1 ovarian): > 100 µM | TGI (OVCAR-3 ovarian): > 100 µM | TGI (SK-MEL-28 melanoma): > 100 µM

CN(C)CCCNC(=O)c1cccc2ccccc12
TGI (NCI-H460 lung): > 100 µM | TGI (XF 498 CNS): > 100 µM | TGI (DMS 273 small cell lung): > 100 µM | TGI (U251 CNS): > 100 µM | TGI (OVCAR-4 ovarian): > 100 µM | TGI (MOLT-4 leukemia): > 100 µM | TGI (A549 NSCLC): > 100 µM | TGI (SF-539 CNS): > 100 µM | TGI (SNB-75 CNS): > 100 µM | TGI (NCI-H522 lung): > 100 µM | TGI (RXF 393 renal): > 100 µM | TGI (SF-295 CNS): > 100 µM | TGI (SK-OV-3 ovarian): > 100 µM | TGI (UACC-62 melanoma): > 100 µM | TGI (LXFL 529 NSCLC): > 100 µM | TGI (HCT-116 colon): > 100 µM | TGI (CCRF-CEM leukemia): > 100 µM | TGI (OVCAR-8 ovarian): > 100 µM | TGI (SF-268 CNS): > 100 µM | TGI (SK-MEL-5 melanoma): > 100 µM | TGI (SNB-78 CNS): > 100 µM | TGI (DLD-1 colon): > 100 µM | TGI (SN12C renal): > 100 µM | TGI (SW-620 colon): > 100 µM | TGI (DMS 114 small cell lung): > 100 µM | TGI (ACHN renal): > 100 µM | TGI (UACC-257 melanoma): > 100 µM | TGI (HT29 colon): > 100 µM | TGI (NCI-H226 lung): > 100 µM | TGI (KM12 colon): > 100 µM | TGI (TK-10 renal): > 100 µM | TGI (SK-MEL-2 melanoma): > 100 µM | TGI (K-562 leukemia): > 100 µM | TGI (HCT-15 colon): > 100 µM | TGI (HL-60(TB) leukemia): > 100 µM | TGI (SNB-19 CNS): > 100 µM | TGI (LOX IMVI melanoma): > 100 µM | TGI (NCI-H23 lung): > 100 µM | TGI (MALME-3M melanoma): > 100 µM | TGI (OVCAR-3 ovarian): > 100 µM | TGI (SK-MEL-28 melanoma): > 100 µM
